Test results reported in patent US10856562B2, “Flavor composition and edible compositions containing same” (MARS, INCORPORATED, priority 2013, dated 2020).
Square brackets hold non-standard residues; d marks the D form. Ends that are not written are not given here. pGlu = O=C1CC[C@@H](C(=O)O)N1

Tested on: panelists
Assay: Attribute perception scores of flavor enhancers in solution (Example 6)
Assay type: in vivo, human
Parameters: key to Metallic / Numbing / Atringent / Salt / Sweet / Sour / Bitter / Umami / Sour, mean evaluation score in solution / Numbing, mean evaluation score in solution / Astringent / Umami FF: 15-point intensity scale, 0 = none, 15 = very strong
Conditions: for Astringent / Bitter / Flinty/Mineral / Metallic / Numbing / Salt / Sour / Sweet / Umami / Umami FF / Atringent / Mineral/Flinty / Umami/brothy: solution
Description: Descriptive attributes (e.g., taste, flavor and chemical feeling factors) of three use levels of pGlu-Cys (FE-35), pGlu-Cys-Gly (FE-36), pGlu-Cys-Cys (FE-37), pGlu-Cys-Val (FE-38) and pGlu-Val-Cys (UE-30) flavor composition peptides were determined. The three use levels were as follows: 1.0 ppb, 10.0 ppb and 100.0 ppb.
Data was collected for the attributes of the product in-mouth for the use levels according to the following protocol: • The samples were analyzed for flavor by six to nine members of a panel, trained and experienced in flavor evaluation using the Spectrum™ method. Samples were evaluated across multiple panel sessions. • The strength of each attribute was rated on a 15-point scale, where 0=none and 15=very strong. • This scale incorporates the ability to use tenths of a point and therefore has the potential of 150 scale differentiations. • The scale may be expanded beyond 15 points to include extreme ratings if necessary.
A summary of the concentrations of NaCl, water and flavor composition peptides in the solution samples is described in table 24.
The panelists evaluated each sample for the attributes described by table 25.

[1] = 10.0 ppb, mean evaluation score
[2] = 100.0 ppb, mean evaluation score
[3] = Concentration 1, MAX, 15-point scale
[4] = Concentration 1, MEAN, 15-point scale
[5] = Concentration 1, MIN, 15-point scale
[6] = Concentration 10, MAX, 15-point scale
[7] = Concentration 10, MEAN, 15-point scale
[8] = Concentration 10, MIN, 15-point scale
[9] = Concentration 100, MAX, 15-point scale
[10] = Concentration 100, MEAN, 15-point scale
[11] = Concentration 100, MIN, 15-point scale

With [pGlu]-Cys [FE-35] the “Mineral/Flinty aromatic in solution as the concentration increases” value (1.0 to 100 ppb) was “show no distinct pattern”, the “Salt perception level in solution as the concentration increases” value (1.0 to 100 ppb) was “show no distinct pattern” and the “Umami aromatic in solution as the concentration increases” value (1.0 to 100 ppb) was “decreases slightly”. For the same substance, the “Umami feeling factor in solution as the concentration increases” value (1.0 to 100 ppb) was “shows no distinct pattern”, the Astringent (1.0 ppb, mean evaluation score) was 0.0 and the Bitter (1.0 ppb, mean evaluation score) was 0.1. The Flinty/Mineral (1.0 ppb, mean evaluation score) was 0.9, the Metallic (1.0 ppb, mean evaluation score) was 0.0 and the Numbing (1.0 ppb, mean evaluation score) was 0.0. For the same substance, the Salt (1.0 ppb, mean evaluation score) was 1.8, the Sour (1.0 ppb, mean evaluation score) was 0.0 and the Sweet (1.0 ppb, mean evaluation score) was 0.3. The Umami (1.0 ppb, mean evaluation score) was 1.5, the “Umami FF” value (1.0 ppb, mean evaluation score) was 1.5 and the Astringent [1] was 0.0. For the same substance, the Bitter [1] was 0.0, the Flinty/Mineral [1] was 0.9 and the Metallic [1] was 0.3. It also gave a Numbing [1] of 0.0, a Salt [1] of 2.6 and a Sour [1] of 0.0. For the same substance, the Sweet [1] was 0.3, the Umami [1] was 0.8 and the “Umami FF” value [1] was 1.1. The Astringent [2] was 0.0, the Bitter [2] was 0.0 and the Flinty/Mineral [2] was 0.7. For the same substance, the Metallic [2] was 0.3, the Numbing [2] was 0.0 and the Salt [2] was 2.0. It also gave a Sour [2] of 0.0, a Sweet [2] of 0.2 and a Umami [2] of 0.2. The “Umami FF” value [2] was 1.1, the Atringent [3] was 0.0 and the Bitter [3] was 0.5. The Metallic [3] was 0.0, the Mineral/Flinty [3] was 1.0 and the Numbing [3] was 0.0. It also gave a Salt [3] of 2.0, a Sour [3] of 0.0 and a Sweet [3] of 1.0. It also gave a Umami [3] of 2.0, a Umami/brothy [3] of 2.0 and an Atringent [4] of 0.0. It also gave a Bitter [4] of 0.1, a Metallic [4] of 0.0 and a Mineral/Flinty [4] of 0.9. The Numbing [4] was 0.0, the Salt [4] was 1.8 and the Sour [4] was 0.0. For the same substance, the Sweet [4] was 0.3, the Umami [4] was 1.5 and the Umami/brothy [4] was 1.5. It also gave an Atringent [5] of 0.0, a Bitter [5] of 0.0 and a Metallic [5] of 0.0. It also gave a Mineral/Flinty [5] of 0.5, a Numbing [5] of 0.0 and a Salt [5] of 1.5. For the same substance, the Sour [5] was 0.0, the Sweet [5] was 0.0 and the Umami [5] was 1.0. The Umami/brothy [5] was 1.0, the Atringent [6] was 0.0 and the Bitter [6] was 0.0. The Metallic [6] was 2.0, the Mineral/Flinty [6] was 1.2 and the Numbing [6] was 0.0. The Salt [6] was 3.0, the Sour [6] was 0.0 and the Sweet [6] was 1.0. The Umami [6] was 2.0, the Umami/brothy [6] was 2.0 and the Atringent [7] was 0.0. For the same substance, the Bitter [7] was 0.0, the Metallic [7] was 0.3 and the Mineral/Flinty [7] was 0.9. For the same substance, the Numbing [7] was 0.0, the Salt [7] was 2.6 and the Sour [7] was 0.0. It also gave a Sweet [7] of 0.3, a Umami [7] of 1.1 and a Umami/brothy [7] of 0.8. It also gave an Atringent [8] of 0.0, a Bitter [8] of 0.0 and a Metallic [8] of 0.0. It also gave a Mineral/Flinty [8] of 0.0, a Numbing [8] of 0.0 and a Salt [8] of 2.2. It also gave a Sour [8] of 0.0, a Sweet [8] of 0.0 and a Umami [8] of 0.0. The Umami/brothy [8] was 0.0, the Atringent [9] was 0.0 and the Bitter [9] was 0.0. It also gave a Metallic [9] of 1.0, a Mineral/Flinty [9] of 1.5 and a Numbing [9] of 0.0. It also gave a Salt [9] of 2.5, a Sour [9] of 0.0 and a Sweet [9] of 1.0. It also gave a Umami [9] of 1.5, a Umami/brothy [9] of 1.0 and an Atringent [10] of 0.0. The Bitter [10] was 0.0, the Metallic [10] was 0.3 and the Mineral/Flinty [10] was 0.7. For the same substance, the Numbing [10] was 0.0, the Salt [10] was 2.0 and the Sour [10] was 0.0. For the same substance, the Sweet [10] was 0.2, the Umami [10] was 1.1 and the Umami/brothy [10] was 0.2. It also gave an Atringent [11] of 0.0, a Bitter [11] of 0.0 and a Metallic [11] of 0.0. For the same substance, the Mineral/Flinty [11] was 0.0, the Numbing [11] was 0.0 and the Salt [11] was 1.5. For the same substance, the Sour [11] was 0.0, the Sweet [11] was 0.0 and the Umami [11] was 0.0. The Umami/brothy [11] was 0.0.
